“Also recorded” adds a separate entry of the source. Where no end group is shown, it is not given here.
Columns and labels:
[1] = test system: angiotensin-converting enzyme 1 (ACE1); experiment: ACE1 inhibition screening kit (fluorometric); type: biochemical
Experimental: (§1) Activity measurements for all three enzymes (renin, ACE1 and ACE2) were carried out using commercial inhibition kits following manufacturer’s instructions. Screening kits were purchased from Biovision (Biovision, Inc. San Francisco, CA). Candidate inhibitors used were human hepcidin-25/LEAP-1 (disulfide bonds between Cys7–Cys23, Cys10–Cys13, Cys11–Cys19, and Cys14–Cys22, purity assessed by HPLC ≥ 98.0%) purchased from Peptides International (Peptides International Inc, Louisville, KY) as well as N-terminal part of hepcidin, Asp-Thr-His-Phe-Pro (hepcidin-5) synthetized by Proteogenix (Schiltigheim, France).
(§2) All kits included the enzyme, substrate, and enzyme inhibitor as negative control. […] DABCYL-EDANS is well-known FRET pair where fluorescence is quenched when peptide is uncleaved. Fluorescence signal is increased after peptide is cleaved and EDANS molecule is free in the solution. The fluorescence intensity was recorded and calculated as follows. […] Both candidate inhibitors were measured with final sample concentrations of 10 nM, 100 nM and 500 nM. […] Fluorescence measurement was performed using Perkin Elmer UV/VIS Envision multimode plate reader. […] Fluorescence was recorded every 60 s for 60 min at 37°C. […]
Briefly, ACE1 enzyme solution was added to a 96-well plate and each diluted candidate enzyme inhibitors were added. […] Fluorescence was recorded every 60s for 100 min at 37°C. […]

[2] = test system: renin; experiment: Renin inhibitor screening kit (fluorometric FRET, DABCYL-EDANS); type: biochemical; conditions: for Mean inhibitory effect on renin activity: 5 min pre-incubation at 37°C, read every 60 s for 60 min at 37°C, ex/em 328/552 nm; for Renin inhibition (in words): 10, 100 and 500 nM, in vitro, 37°C
Experimental: as §1
All kits included the enzyme, substrate, and enzyme inhibitor as negative control. The fluorophore labelled substate was cleaved by the enzyme. The used fluorophores were a synthetic o-aminobenzoyl peptide for ACE1, 7-Methoxycoumarin-4-acetic acid (MCA) for ACE2 and 5-((2-Aminoethyl)amino)naphthalene-1-sulfonic acid (EDANS) for renin. DABCYL-EDANS is well-known FRET pair where fluorescence is quenched when peptide is uncleaved. Fluorescence signal is increased after peptide is cleaved and EDANS molecule is free in the solution. The fluorescence intensity was recorded and calculated as follows. According to renin inhibitor screening kit instructions hepcidin-25 and hepcidin-5 were first pipetted to a black ForteBio’s 96-well plate. Renin enzyme solution was added and mixed. Both candidate inhibitors were measured with final sample concentrations of 10 nM, 100 nM and 500 nM. The plate was incubated for 5 min at 37°C. Finally, substrate solution was added into each well. Fluorescence measurement was performed using Perkin Elmer UV/VIS Envision multimode plate reader. Excitation and emission wavelengths were 328 and 552 nm, respectively. Fluorescence was recorded every 60 s for 60 min at 37°C. Inhibitory activity of renin was calculated as follows: Renininhibitoryactivity(%)=1−Activitywithsample/Activitywithoutsamplex100 where “Activity with sample” is the slope calculated from the linear range of the fluorescence plot at the presence of candidate inhibitor. Activity without the sample represents the slope without any sample in the well.
Mean enzyme inhibitory activities with the standard error of means were calculated at different concentrations. Data analysis was performed using Microsoft Office 365 ProPlus Excel version 1902 for Windows. The hepcidin–renin binding data was treated as follows: Background was subtracted, and the data was normalised to allow comparison between experiments. The normalised data was analysed with […] regression analysis in GraphPad Prism 5.02 (GraphPad Software, La Jolla, CA) assuming one-site specific binding.

[3] = test system: human renin; experiment: Bio-layer interferometry, hepcidin-renin binding; conditions: biotinylated renin on sensors; analyte 12.5-100 μM; ForteBio Octet RED384, PBS pH 7.2 and 150 mM NaCl, 27°C; association 0–1200 s, dissociation 1200–2000 s
Experimental: Human prorenin coding gene was ordered from GeneArt in pcDNA3.1(+) as fusion protein with a C-terminal His-tag. The pcDNA3.1 vector confers ampicillin resistance. Plasmid was dissolved in 50 μl of TE-EF and the amount of 100 ng was transferred into Escherichia coli TOP10 cells (Invitrogen, UK) with the heat shock method (30 s). In the next day colonies were picked for midiprep isolation. A single colony was picked and cultured in 5 ml media supplemented with 100 μg/ml ampicillin and 5 mM glucose for 7 hours after which it is moved to 200 ml LB media, which included ampicillin and glucose, and grown overnight at 37°C 220 rpm. The plasmid DNA was isolated using Nucleobond Xtra Midi Plus EF Kit (Macherey-Nagel, #7404220). Plasmid DNA produced was endotoxin-free. Human prorenin was then produced in ExpiCHO cells.
Cell pellet was re-suspended in 20 ml buffer (50 mM Hepes, 200 mM NaCl, 10% Glycerol, 1 mM TCEP, pH 7.5) and protease inhibitor tablet was added. Cell lysis was made with sonicator (1 min, 50%, 2 sec on/5 sec off cycle). […]
Biotinylation of renin was done using NHS-PEG4-Biotin (ThermoFisher Scientific) at 1:1 molar ratio. […] Concentration of biotinylated protein was measured using NanoDrop™ One Uv-Vis spectrophotometer (ThermoFisher Scientific). […]
(§3) Mean enzyme inhibitory activities with the standard error of means were calculated at different concentrations. […]

[4] = test system: angiotensin-converting enzyme 2 (ACE2); experiment: ACE2 inhibition screening kit (fluorometric); type: biochemical; conditions: 10, 100 and 500 nM; 15 min pre-incubation at room temperature, read every 60 s for 60 min, ex/em 320/420 nm; n = 3-6-4 (hepcidin-25), 3-6-3 (hepcidin-5)
Experimental: as §1
as §2, with “control. The fluorophore labelled substate was cleaved by the enzyme.” for “control.”
as §3

## Asp-Thr-His-Phe-Pro [hepcidin-5, N-terminal part of hepcidin, synthetized by Proteogenix]
[1]; 500 nM, 15 min pre-incubation at 37°C, read every 60 s for 100 min at 37°C, ex/em 330/430 nm, n = 6
  ACE1 inhibitory activity (strongest): 34.8%
[2]; 10 nM peptide, n = 2
  Mean inhibitory effect on renin activity: 50.1%
[2]; 100 nM peptide, n = 3
  Mean inhibitory effect on renin activity: 50.0%
[2]; 500 nM peptide, n = 3
  Mean inhibitory effect on renin activity: 58.6%
[2]
  Renin inhibition (in words): stronger effect on renin than hepcidin-25

## hepcidin-20: control peptide, purchased from Pepnet; truncated isoform without N-terminal hepcidin-5 (ICIFCCGCCHRSKCGMCCKT; ends and bridges not checked; cysteine pairing not given here; UniProt P81172 65-84, looked up)
[3]
  Binding to renin (association and dissociation curves, in words): cannot bind to renin

## hepcidin-25: human hepcidin-25/LEAP-1 (disulfide bonds between Cys7–Cys23, Cys10–Cys13, Cys11–Cys19, and Cys14–Cys22), purchased from Peptides International
[3]
  Binding to renin (association and dissociation curves, in words): concentration dependent
[1]; 10, 100 and 500 nM, 37°C, n = 5-6-1 for hepcidin-25
  ACE1 inhibition (in words): not inhibited remarkably; also recorded: low inhibitory activity
[4]
  ACE2 inhibition (in words): not inhibited remarkably
[2]; 10 nM peptide, n = 2
  Mean inhibitory effect on renin activity: 20.4%
[2]; 100 nM peptide, n = 3
  Mean inhibitory effect on renin activity: 29.2%
[2]; 500 nM peptide, n = 3
  Mean inhibitory effect on renin activity: 38.3%
[2]
  Renin inhibition (in words): has an inhibitory effect on renin in vitro; also recorded: can bind to renin enzyme and inhibit its activity in vitro; also recorded: can bind to the active site of renin and inhibit its activity in vitro
